# Patent publication US8202865B2, “Oxadiazole derivatives” (Merck Serono SA, priority 2007, dated 2012)
# Structures can show the parent of a compound that is named as a salt.
# Columns and labels:
# S1P1 [1] = biological target: T1, S1P1 (Homo sapiens, UniProt P21453); experiment: 35S-GTPγS binding, S1P1 membranes; assay type: biochemical; details: membranes from CHO cells expressing S1P1; 60 min 30° C.
# T1 construct: expressed in transfected cells; host or cells: CHO cells (membranes)
# In short: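 CHO-cell membranes expressing S1P1 or S1P3 (1-10 μg) incubated with compounds in 20 mM HEPES pH 7.4, 10 mM MgCl2, 140 mM NaCl, saponin, 0.2% BSA, 1.7 μM GDP and [35S]-GTPγS (20 μl of 1.5 nM added), 60 min at 30° C. Bound radioactivity expressed as % of S1P activation.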
# S1P3 = biological target: T2, S1P3 (Homo sapiens, UniProt Q99500); experiment: 35S-GTPγS binding, S1P3 membranes; assay type: biochemical; details: membranes from CHO cells expressing S1P3; 60 min 30° C.
# T2 construct: expressed in transfected cells; host or cells: CHO cells (membranes)
# Description: (§1) Receptor binding assay: Membranes were prepared from CHO cells expressing S1P1 or S1P3 for use in ligand and […] binding studies. Cells were suspended in 50 mM TRIS, pH 7.4, 2 mM EDTA, 250 mM Sucrose (buffer A) and 1× Complete protease inhibitor cocktail (Roche), and disrupted at 4° C. by N2 decompression using a cell disruption bomb (Parr Instrument). Following centrifugation at 1000 RPM for 10 min at 4° C., the supernatant was suspended in buffer A and centrifuged again at 19000 RPM for 60 min at 4° C. The pellet was then suspended in 10 mM HEPES, pH 7.4, 1 mM EDTA, 250 mM Sucrose (Buffer B), and 1× Complete EDTA-free protease inhibitor cocktail and homogenized using a potter. Membranes were flash frozen in liquid N2 and stored at −80° C. [33P]sphingosine 1-phosphate (3000 Ci/mmol; American Radiolabeled Chemicals, Inc.) was added to test compounds in DMSO. Membranes and WGA SPA beads (GE Healthcare) were added to give a final volume of 100 μl in 96-well plates with assay concentrations of 25 pM or 10 pM [33P]sphingosine 1-phosphate (respectively for S1P1 or S1P3), 50 mM HEPES, pH 7.5, 5 mM MgCl2, 100 mM NaCl, 0.4% fatty acid-free BSA, 1-5 μg/well of proteins and 100 μg/well of WGA SPA beads. Binding was performed for 60 min at RT on a shaker and bound radioactivity was measured on a PerkinElmer 1450 MicroBeta counter. Specific binding was calculated by subtracting remaining radioactivity in the presence of 1000-fold excess of unlabeled S1P. Binding data were analyzed using the GraphPad Prism program.
# Measurements of ^35S-GTPγS Binding: Membranes (1 to 10 μg protein) prepared as described above, were incubated in 96-well Scintiplates (PerkinElmer) with test compounds diluted in DMSO, in 180 μl of 20 mM HEPES, pH 7.4, 10 mM MgCl2, 2 μg/well Saponin, 0.2% fatty acid free BSA (Assay buffer), 140 mM NaCl and 1.7 μM GDP. The assay was initiated with the addition of 20 μl of 1.5 nM [35S]-GTPγS (1100 Ci/mmol; GE Healthcare) in assay buffer. After 60 min incubation at 30° C. on a shaker, plates were centrifuged for 10 min at 2000 RPM. Supernatant was discarded and membrane bound radioactivity was measured on a PerkinElmer 1450 MicroBeta counter. Triplicate samples were averaged and expressed as % response relative to S1P activation in absence of compound (n=2).
# S1P1 [2] = biological target: T1, S1P1; experiment: Receptor binding assay, [33P]sphingosine 1-phosphate, membranes, WGA SPA beads; details: membranes from CHO cells expressing S1P1; 25 pM [33P]S1P; 60 min RT
# Description: as §1
# T2 sequence (Q99500 whole entry, species assumed): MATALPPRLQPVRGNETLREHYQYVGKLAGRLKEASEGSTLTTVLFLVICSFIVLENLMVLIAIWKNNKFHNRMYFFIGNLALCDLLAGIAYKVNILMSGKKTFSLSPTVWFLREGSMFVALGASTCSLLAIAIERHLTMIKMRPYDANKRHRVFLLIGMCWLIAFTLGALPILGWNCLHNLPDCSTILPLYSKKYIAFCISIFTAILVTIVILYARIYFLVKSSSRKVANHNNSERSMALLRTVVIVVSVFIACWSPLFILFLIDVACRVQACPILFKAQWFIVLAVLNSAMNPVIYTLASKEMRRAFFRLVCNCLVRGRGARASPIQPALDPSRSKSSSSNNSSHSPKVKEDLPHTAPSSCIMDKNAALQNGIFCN
# T1 sequence (P21453 whole entry, species assumed): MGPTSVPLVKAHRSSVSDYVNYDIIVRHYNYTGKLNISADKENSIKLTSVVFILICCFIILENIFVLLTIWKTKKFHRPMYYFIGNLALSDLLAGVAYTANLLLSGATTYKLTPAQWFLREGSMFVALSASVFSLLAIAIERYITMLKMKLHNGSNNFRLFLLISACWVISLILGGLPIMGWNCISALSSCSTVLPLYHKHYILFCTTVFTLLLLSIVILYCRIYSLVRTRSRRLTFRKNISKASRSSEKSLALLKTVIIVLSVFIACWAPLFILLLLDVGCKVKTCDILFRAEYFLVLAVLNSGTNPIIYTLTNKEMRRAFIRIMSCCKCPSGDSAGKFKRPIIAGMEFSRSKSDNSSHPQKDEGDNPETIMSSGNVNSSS
EC50 (S1P1 [1]),EC50 (S1P3),Ki (S1P1 [2]),SMILES
70 nM,14500 nM,10 nM,"Cc1ccccc1-c1ccc(-c2nc(-c3ccc(NCC(=O)O)c(F)c3)no2)cc1C [Example 56, N-{4-[5-(2,2′-dimethylbiphenyl-4-yl)-1,2,4-oxadiazol-3-yl]-2-fluorophenyl}glycine]"
60 nM,615 nM,30 nM,"CCOCc1cc(-c2nc(-c3ccc(C(=O)O)c(F)c3)no2)ccc1-c1ccccc1C [Example 63, 4-{5-[2-(ethoxymethyl)-2′-methylbiphenyl-4-yl]-1,2,4-oxadiazol-3-yl}-2-fluorobenzoic acid]"
48 nM,4960 nM,16 nM,"COCc1cc(-c2nc(-c3ccc(C(=O)O)c(F)c3)no2)ccc1-c1cccc(C)c1C [Example 95, 2-fluoro-4-{5-[2-(methoxymethyl)-2′,3′-dimethylbiphenyl-4-yl]-1,2,4-oxadiazol-3-yl}benzoic acid]"
317 nM,> 30000 nM,126 nM,"Cc1ccccc1-c1ccc(-c2nc(-c3ccc(C(=O)O)c(F)c3)no2)cc1C [Example 4, 4-[5-(2,2′-dimethylbiphenyl-4-yl)-1,2,4-oxadiazol-3-yl]-2-fluorobenzoic acid]"
182 nM,1350 nM,177 nM,"Cc1ccccc1-c1ccc(-c2nc(-c3ccc(C(=O)O)c(F)c3)no2)cc1CN1CCOCC1 [Example 75, 2-fluoro-4-{5-[2′-methyl-2-(morpholin-4-ylmethyl)biphenyl-4-yl]-1,2,4-oxadiazol-3-yl}benzoic acid, Trifluoroacetic acid salt]"
133 nM,> 30000 nM,65 nM,"Cc1ccccc1-c1ccc(-c2nc(-c3ccc(C(=O)O)c(Cl)c3)no2)cc1C [Example 68, 2-chloro-4-[5-(2,2′-dimethylbiphenyl-4-yl)-1,2,4-oxadiazol-3-yl]benzoic acid]"
286 nM,767 nM,182 nM,"Cc1ccccc1-c1ccc(-c2nc(-c3ccc(C(=O)O)c(F)c3)no2)cc1COC(C)C [Example 59, 2-fluoro-4-{5-[2-(isopropoxymethyl)-2′-methylbiphenyl-4-yl]-1,2,4-oxadiazol-3-yl}benzoic acid]"

# Second part, the molecule before the results:
SMILES,EC50 (S1P1 [1]),EC50 (S1P3),Ki (S1P1 [2])
"CCCS(=O)(=O)Nc1cc(-c2nc(-c3ccc(C(=O)O)c(F)c3)no2)ccc1N1CCCCC1C (stereo not drawn) [Example 74, 2-fluoro-4-(5-{4-(2-methylpiperidin-1-yl)-3-[(propylsulfonyl)amino]phenyl}-1,2,4-oxadiazol-3-yl)benzoic acid]",408 nM,1770 nM,443 nM
"CCOC(=O)C1(NC(=O)c2ccc(-c3noc(-c4ccc(-c5ccccc5C)c(COC)c4)n3)cc2F)CC1 [Example 118, Ethyl 1-[(2-fluoro-4-{5-[2-(methoxymethyl)-2′-methylbiphenyl-4-yl]-1,2,4-oxadiazol-3-yl}benzoyl)amino]cyclopropanecarboxylate]",7 nM,2160 nM,2 nM
"COCc1cc(-c2nc(-c3ccc(F)c(CN(C)CC(=O)O)c3)no2)ccc1-c1ccccc1C [Example 146, N-(2-fluoro-5-{5-[2-(methoxymethyl)-2′-methylbiphenyl-4-yl]-1,2,4-oxadiazol-3-yl}benzyl)-N-methylglycine, Hydrochloride salt]",2.5 nM,422 nM,0.8 nM
"COCc1cc(-c2nc(-c3cccc(CN(C)CCO)c3)no2)ccc1-c1ccccc1C [Example 186, 2-[(3-{5-[2-(methoxymethyl)-2′-methylbiphenyl-4-yl]-1,2,4-oxadiazol-3-yl}benzyl)(methyl)amino]ethanol, Hydrochloride salt]",1.1 nM,1620 nM,0.8 nM
"COCc1cc(-c2nc(-c3ccc(C(=O)NCCCC(=O)O)c(F)c3)no2)ccc1-c1ccccc1C [Example 127, 4-[(2-fluoro-4-{5-[2-(methoxymethyl)-2′-methylbiphenyl-4-yl]-1,2,4-oxadiazol-3-yl}benzoyl)amino]butanoic acid]",6 nM,1220 nM,2.1 nM
"COCc1cc(-c2nc(-c3ccc(C(=O)O)c(F)c3)no2)ccc1N1CCCCC1C (stereo not drawn) [Example 114, 2-fluoro-4-{5-[3-(methoxymethyl)-4-(2-methylpiperidin-1-yl)phenyl]-1,2,4-oxadiazol-3-yl}benzoic acid]",13 nM,2810 nM,2.7 nM
"COCc1cc(-c2nc(-c3cccc(CNC4(C(=O)O)CC4)c3)no2)ccc1-c1ccccc1C [Example 151, 1-[(3-{5-[2-(methoxymethyl)-2′-methylbiphenyl-4-yl]-1,2,4-oxadiazol-3-yl}benzyl)amino]cyclopropanecarboxylic acid]",4.8 nM,175 nM,6.5 nM
"COCc1cc(-c2nc(-c3cccc(CN(C)CC(=O)O)c3)no2)ccc1-c1ccccc1C [Example 141, N-(3-{5-[2-(methoxymethyl)-2′-methylbiphenyl-4-yl]-1,2,4-oxadiazol-3-yl}benzyl)-N-methylglycine, Hydrochloride salt]",0.85 nM,621 nM,1.4 nM
"CC1CCCCN1c1ccc(-c2nc(-c3ccc(C(=O)O)cc3F)no2)cc1C(F)(F)F (stereo not drawn) [Example 27, 3-fluoro-4-{5-[4-(2-methylpiperidin-1-yl)-3-(trifluoromethyl)phenyl]-1,2,4-oxadiazol-3-yl}benzoic acid]",1100 nM,> 20000 nM,505 nM
"COCc1cc(-c2nc(-c3ccc(C(=O)O)c(F)c3)no2)ccc1-c1cscc1C [Example 93, 2-fluoro-4-{5-[3-(methoxymethyl)-4-(4-methyl-3-thienyl)phenyl]-1,2,4-oxadiazol-3-yl}benzoic acid]",18 nM,1380 nM,10 nM
"COCc1cc(-c2nc(-c3ccc(C(=O)O)c(F)c3)no2)ccc1-c1cc(F)ccc1C [Example 84, 2-fluoro-4-{5-[5′-fluoro-2-(methoxymethyl)-2′-methylbiphenyl-4-yl]-1,2,4-oxadiazol-3-yl}benzoic acid]",34 nM,2800 nM,55 nM
"COc1cc(-c2nc(-c3ccc(C(=O)O)c(F)c3)no2)ccc1-c1cscc1C [Example 12, 2-fluoro-4-{5-[3-methoxy-4-(4-methyl-3-thienyl)phenyl]-1,2,4-oxadiazol-3-yl}benzoic acid]",148 nM,> 30000 nM,60 nM
"COCc1cc(-c2nc(-c3cccc(S(C)(=O)=O)c3)no2)ccc1-c1ccccc1C [Example 194, 5-[2-(methoxymethyl)-2′-methylbiphenyl-4-yl]-3-[3-(methylsulfonyl)phenyl]-1,2,4-oxadiazole]",1 nM,1720 nM,1.6 nM
"COCc1cc(-c2nc(-c3cc(F)c(C(=O)O)cc3F)no2)ccc1-c1ccccc1C [Example 97, 2,5-difluoro-4-{5-[2-(methoxymethyl)-2′-methylbiphenyl-4-yl]-1,2,4-oxadiazol-3-yl}benzoic acid]",64 nM,1940 nM,8 nM
"COCc1cc(-c2nc(-c3cccc(CN(C)CC(=O)O)c3)no2)ccc1OC(C)C [Example 148, N-(3-{5-[4-isopropoxy-3-(methoxymethyl)phenyl]-1,2,4-oxadiazol-3-yl}benzyl)-N-methylglycine, Hydrochloride salt]",4 nM,2350 nM,0.7 nM
"Cc1cc(-c2nc(-c3ccc(C(=O)O)cc3F)no2)ccc1-c1cscc1C [Example 26, 3-fluoro-4-{5-[3-methyl-4-(4-methyl-3-thienyl)phenyl]-1,2,4-oxadiazol-3-yl}benzoic acid]",360 nM,> 20000 nM,172 nM
"COCc1cc(-c2nc(-c3ccc(C(=O)O)c(F)c3)no2)ccc1-c1ccccc1F [Example 81, 2-fluoro-4-{5-[2′-fluoro-2-(methoxymethyl)biphenyl-4-yl]-1,2,4-oxadiazol-3-yl}benzoic acid]",115 nM,2780 nM,28 nM
